Measurements as given in patent US20250163052A1, “cGAS INHIBITORS AND USES THEREOF” (Cornell University, priority 2022, published 2025).

Assays:
[1] = Metabolic stability in mouse liver microsomes
[2] = Metabolic stability in human liver microsomes
P301S mice [3] = assay: Novel object recognition test in P301S mice fed TDI-6570 diet; type: in vivo, mouse; details: 150 mg/kg diet for three months
Text: (§1) P301S transgenic mice (https://www.jax.org/strain/008169) were crossed with cGas knockout mice (https://www.jax.org/strain/026554) to generate littermate P301S cGas+/+ mice, P301S cGas+/− and littermate P301S cGas−/− mice, as well as non-transgenic littermates. Mice of both sexes were used behavioral, histological and biochemical analyses. Mice underwent behavioral testing at 7 to 8 months of age and had not been used for any other experiments. At 9 to 10 months of age, the same mice were used for pathology and RNA-seq studies. For TDI-6570 in vivo treatment, P301S and non-transgenic littermate mice at 6-7 months were used for diet experiments and were assayed for behavior and histology at 9-10 months. Mice were housed under specific pathogen-free conditions under a 12 h light-dark cycle and all mouse protocols were approved by the Institutional Animal Care and Use Committee, University of California, San Francisco.
For experiments involving TDI-6570 treatment, male P301S and Non-transgenic littermates fed with TDI-6570 or control diet were used.
Mice were habituated to opaque open field arenas (40×40 cm) for two 10-minute trials spaced on the two days leading up to object recognition. […] An experimenter blind to the groups manually scored the time mice spent exploring each object. Preference was calculated based on the total time an individual mouse spent exploring both objects. […]

P301S mice [4] = assay: Immunofluorescent staining of hippocampal synapses (PSD-95, vGAT) in P301S mice; type: in vivo, mouse; details: hippocampal CA1, 150 mg/kg diet for three months
Text: as §1
Hemibrains from transcardially perfused mice were placed in 4% paraformaldehyde for 48 h, followed by 30% sucrose PBS for 48 h at 4° C. Sections were cut coronally at 40 μm using a freezing microtome (Leica) and placed in cryoprotective medium at −20° C. until use. 8-10 free floating sections per mouse. […] Quantification was done using ImageJ software (NIH) using percentage area based on thresholding determined using negative and positive controls. […]

Cn1c2c(c3ccc(Cl)c(F)c31)CN(C(=O)CO)CC2 [TDI-6570, reference compound]
Remaining (NCF = 60 min) ([1]; mouse liver microsomes, 60 min, no co-factor (no NADPH)): 100.0%
Remaining (T = 60 min) ([1]; mouse liver microsomes, 60 min with NADPH): 0.0%
CLint(liver) ([1]; mouse liver microsomes, scaled from CLint(mic)): 997.5 mL/min/kg
CLint(mic) ([1]; mouse, liver microsomes): 251.9 µL/min/mg
T½ ([1]; mouse, liver microsomes): 5.5 min
Remaining (NCF = 60 min) ([2]; human liver microsomes, 60 min, no co-factor (no NADPH)): 120.6%
Remaining (T = 60 min) ([2]; human liver microsomes, 60 min with NADPH): 11.3%
CLint(liver) ([2]; human liver microsomes, scaled from CLint(mic)): 68.2 mL/min/kg
CLint(mic) ([2]; human, liver microsomes): 75.8 µL/min/mg
T½ ([2]; human, liver microsomes): 18.3 min
Defect in recognizing the novel object (novel object recognition test) (P301S mice [3]): rescued
P301S-dependent excitatory synapse loss (PSD-95) (P301S mice [4]): rescued
P301S-dependent inhibitory synapse loss (vGAT) (P301S mice [4]): rescued
